Assay results reported in PMC11247487, “Discovery of Dual MER/AXL Kinase Inhibitors as Bifunctional Small Molecules for Inhibiting Tumor Growth and Enhancing Tumor Immune Microenvironment” (Journal of Medicinal Chemistry, 2024).
Values joined by “and” are separate entries in the source; they are usually repeats but may differ in a detail not shown here. Equal entries are not always repeated. “Also recorded” adds a separate entry of the source.

Experiments:
FLT3 [1] = system: FLT3; parameters: method as in PMID 25068800, PMID 27649555; conditions: cited from earlier work
MER = biological target: T1, MER (Homo sapiens, UniProt Q12866); conditions: cited from earlier work
T1 construct: A purified kinase (MER or AXL) was incubated with a compound or DMSO
T1 sequence (Q12866 21-999): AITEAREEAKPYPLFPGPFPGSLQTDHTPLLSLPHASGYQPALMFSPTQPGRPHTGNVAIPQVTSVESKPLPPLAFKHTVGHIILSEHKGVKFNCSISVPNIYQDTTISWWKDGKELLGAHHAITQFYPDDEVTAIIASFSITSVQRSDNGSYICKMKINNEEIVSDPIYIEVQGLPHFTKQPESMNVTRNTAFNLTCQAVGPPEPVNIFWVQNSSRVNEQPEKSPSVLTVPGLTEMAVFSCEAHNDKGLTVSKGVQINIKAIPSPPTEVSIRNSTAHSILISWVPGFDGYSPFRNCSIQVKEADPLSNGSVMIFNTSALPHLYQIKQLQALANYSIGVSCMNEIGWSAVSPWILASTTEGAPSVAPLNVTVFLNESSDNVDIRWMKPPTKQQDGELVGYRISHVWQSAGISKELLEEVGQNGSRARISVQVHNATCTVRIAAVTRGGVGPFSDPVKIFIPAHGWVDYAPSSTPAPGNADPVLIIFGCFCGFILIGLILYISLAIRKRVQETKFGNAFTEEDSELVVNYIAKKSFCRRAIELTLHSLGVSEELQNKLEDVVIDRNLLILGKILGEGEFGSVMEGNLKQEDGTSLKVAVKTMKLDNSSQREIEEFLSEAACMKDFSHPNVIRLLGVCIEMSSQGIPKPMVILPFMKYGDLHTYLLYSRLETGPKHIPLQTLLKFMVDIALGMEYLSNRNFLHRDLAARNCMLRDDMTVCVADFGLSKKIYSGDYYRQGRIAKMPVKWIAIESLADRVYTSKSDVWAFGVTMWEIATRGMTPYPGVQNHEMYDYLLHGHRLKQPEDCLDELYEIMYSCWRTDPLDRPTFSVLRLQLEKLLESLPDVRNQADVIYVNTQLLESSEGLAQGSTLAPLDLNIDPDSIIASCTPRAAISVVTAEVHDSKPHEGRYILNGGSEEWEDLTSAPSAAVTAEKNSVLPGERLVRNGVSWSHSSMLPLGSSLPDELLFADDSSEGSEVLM

Ba/F3-MER cells = assay: Cell viability assay (MTS); type: cell-based; conditions: 72 h
[2] = In vivo pharmacokinetics study; conditions: mice
Experimental: The animal studies were performed according to NHRI institutional animal care and committee-approved procedures. Male ICR mice (25–35 g) were obtained from BioLASCO (Taiwan Co., Ltd., Ilan, Taiwan). […] All samples were analyzed for the parent drug by LC-MS/MS. Plasma concentration data were analyzed with a noncompartmental method.

[3] = In vitro microsomal stability assay; type: in vitro ADME; conditions: 1 μM, mouse liver microsomes, percent remaining at 30 min
Experimental: All incubations were initiated with the addition of NADPH-generating system at 37 °C for 30 min. At 0 and the end of incubation, 100 μL of aliquots were taken from the incubation mixture and placed into centrifuge tubes containing 100 μL of ice-cold acetonitrile to terminate the metabolic reaction. The samples were vortexed and centrifuged, and then, the supernatant injected onto LC/MS. Percent of remaining of each compound was calculated by comparing peak areas at 30 min to that at the initiation of incubation.

MC38 murine colon tumor = assay: MC38 syngeneic tumor model; type: in vivo, mice; conditions: MC38 tumor-bearing mice, 25-50 mg/kg orally, 3 weeks
[4] = system: immune cells in tumor and spleen of MC38 tumor-bearing mice; assay: Immunophenotyping by flow cytometry; type: in vivo; conditions: 50 mg/kg QD, FOTO, 2 weeks
Experimental: Tumor and spleen tissues from the control and treated animals were harvested 2 h after the last dose (day 11). […] tissues were carefully removed from the tumors followed by digestion with 0.1% collagenase III in DMEM medium for 30 min at 37 °C with agitation every 10 min. The digestion was terminated by adding 10% FBS containing PBS. The single-cell suspension was filtered through a 40 μm filter after red blood cell lysis. Aliquots of the cell suspension were preincubated with the mouse Fc receptor blocker for 10 min before staining with appropriate antimouse antibody conjugate for Cd45, Cd3, Cd4, Cd8, Cd11b, Cd86, F4/80, AXL, and MER (all antibody conjugates from BioLegend) at 4 °C for 30 min followed by two washes in 1% BSA containing buffer and analyzed by flow cytometry to quantify the accumulation of infiltrating immune cells into the tumor. For analysis of Cd206, the cells were fixed using the Cyto X/Cytoperm kit (BD Biosciences) after surface marker staining and then stained with antimouse Cd206 antibody.

[5] = mouse, in vivo
DDR1 = DDR1 (Homo sapiens, UniProt Q08345); assay: HotSpot kinase assay; conditions: read-out: % Enzyme Activity
Chain of DDR1 (Q08345 19-913): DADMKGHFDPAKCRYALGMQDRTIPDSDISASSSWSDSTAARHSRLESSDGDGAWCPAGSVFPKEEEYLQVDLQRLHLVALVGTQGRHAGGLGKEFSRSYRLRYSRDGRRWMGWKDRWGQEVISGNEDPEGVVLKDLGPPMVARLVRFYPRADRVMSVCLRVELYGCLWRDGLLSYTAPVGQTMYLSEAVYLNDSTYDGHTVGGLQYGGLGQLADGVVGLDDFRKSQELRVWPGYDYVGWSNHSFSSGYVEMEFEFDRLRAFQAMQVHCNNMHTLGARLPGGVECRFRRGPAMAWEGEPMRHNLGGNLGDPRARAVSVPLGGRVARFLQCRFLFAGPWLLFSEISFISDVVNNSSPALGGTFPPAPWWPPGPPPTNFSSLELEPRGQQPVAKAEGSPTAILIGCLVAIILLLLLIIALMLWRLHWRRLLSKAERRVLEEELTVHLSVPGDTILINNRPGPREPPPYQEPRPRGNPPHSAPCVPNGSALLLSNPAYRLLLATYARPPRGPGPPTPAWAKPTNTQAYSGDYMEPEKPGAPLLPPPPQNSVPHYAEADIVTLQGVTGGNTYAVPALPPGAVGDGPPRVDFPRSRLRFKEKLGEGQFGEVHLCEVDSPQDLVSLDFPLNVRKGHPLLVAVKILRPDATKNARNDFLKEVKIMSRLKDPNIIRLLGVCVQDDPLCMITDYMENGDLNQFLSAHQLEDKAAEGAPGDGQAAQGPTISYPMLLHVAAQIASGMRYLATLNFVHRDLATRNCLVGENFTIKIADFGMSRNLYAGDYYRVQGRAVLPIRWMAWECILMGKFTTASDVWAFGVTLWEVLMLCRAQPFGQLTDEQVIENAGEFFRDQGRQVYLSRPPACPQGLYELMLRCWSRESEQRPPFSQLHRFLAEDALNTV

DDR2 = DDR2 (Homo sapiens, UniProt Q16832); assay: HotSpot kinase assay; conditions: read-out: % Enzyme Activity
Chain of DDR2 (Q16832 22-855): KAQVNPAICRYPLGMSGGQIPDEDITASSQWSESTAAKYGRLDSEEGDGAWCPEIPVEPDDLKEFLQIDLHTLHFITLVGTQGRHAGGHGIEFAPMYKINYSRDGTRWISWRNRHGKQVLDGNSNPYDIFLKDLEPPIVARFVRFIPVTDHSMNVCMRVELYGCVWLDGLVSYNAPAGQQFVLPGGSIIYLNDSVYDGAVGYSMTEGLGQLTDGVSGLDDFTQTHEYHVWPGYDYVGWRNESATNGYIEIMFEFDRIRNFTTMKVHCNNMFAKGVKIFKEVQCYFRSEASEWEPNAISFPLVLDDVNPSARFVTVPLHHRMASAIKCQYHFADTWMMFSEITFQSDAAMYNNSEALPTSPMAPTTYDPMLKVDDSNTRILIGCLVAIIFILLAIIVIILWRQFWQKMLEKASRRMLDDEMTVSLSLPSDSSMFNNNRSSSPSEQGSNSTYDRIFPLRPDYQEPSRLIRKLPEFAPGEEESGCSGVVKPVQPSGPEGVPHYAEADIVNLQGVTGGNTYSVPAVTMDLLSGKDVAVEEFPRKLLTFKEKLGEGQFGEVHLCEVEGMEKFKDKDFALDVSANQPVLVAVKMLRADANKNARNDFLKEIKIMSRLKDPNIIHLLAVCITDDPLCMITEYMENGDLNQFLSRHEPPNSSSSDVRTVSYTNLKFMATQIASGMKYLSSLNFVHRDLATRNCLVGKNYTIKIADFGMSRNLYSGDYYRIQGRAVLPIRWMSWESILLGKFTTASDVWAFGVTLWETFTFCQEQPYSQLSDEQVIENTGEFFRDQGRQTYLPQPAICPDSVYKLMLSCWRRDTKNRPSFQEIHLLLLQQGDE

FLT3 [6] = biological target: FLT3 (Homo sapiens, UniProt P36888); assay: HotSpot kinase assay; conditions: read-out: % Enzyme Activity
KIT = KIT (Homo sapiens, UniProt P10721); assay: HotSpot kinase assay; conditions: read-out: % Enzyme Activity
Chain of KIT (P10721 26-976): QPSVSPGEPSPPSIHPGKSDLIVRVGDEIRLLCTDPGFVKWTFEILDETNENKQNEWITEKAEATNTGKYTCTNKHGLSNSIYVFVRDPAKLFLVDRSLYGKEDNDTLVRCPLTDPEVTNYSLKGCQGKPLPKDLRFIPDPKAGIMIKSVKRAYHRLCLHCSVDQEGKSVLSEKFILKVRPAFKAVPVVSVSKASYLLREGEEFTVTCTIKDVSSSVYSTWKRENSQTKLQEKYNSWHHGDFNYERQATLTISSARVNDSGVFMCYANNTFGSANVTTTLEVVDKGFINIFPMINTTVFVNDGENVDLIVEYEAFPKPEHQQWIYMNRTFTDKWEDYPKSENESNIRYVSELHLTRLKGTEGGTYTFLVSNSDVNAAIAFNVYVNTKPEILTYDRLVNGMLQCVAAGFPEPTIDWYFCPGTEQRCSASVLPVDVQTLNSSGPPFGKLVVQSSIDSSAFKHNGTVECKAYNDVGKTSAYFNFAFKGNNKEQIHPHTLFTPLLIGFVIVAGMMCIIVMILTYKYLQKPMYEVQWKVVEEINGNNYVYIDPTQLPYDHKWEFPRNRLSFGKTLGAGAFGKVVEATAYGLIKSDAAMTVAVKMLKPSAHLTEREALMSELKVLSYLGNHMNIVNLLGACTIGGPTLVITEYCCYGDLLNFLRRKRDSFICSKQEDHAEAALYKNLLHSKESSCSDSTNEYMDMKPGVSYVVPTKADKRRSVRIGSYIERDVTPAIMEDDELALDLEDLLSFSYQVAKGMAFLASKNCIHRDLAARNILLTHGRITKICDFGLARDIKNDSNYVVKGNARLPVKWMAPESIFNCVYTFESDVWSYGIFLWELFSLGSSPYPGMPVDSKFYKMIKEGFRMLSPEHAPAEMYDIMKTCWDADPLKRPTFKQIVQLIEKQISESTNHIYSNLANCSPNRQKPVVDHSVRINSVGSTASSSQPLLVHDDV

IRR = IRR (Homo sapiens, UniProt P14616); assay: HotSpot kinase assay; conditions: read-out: % Enzyme Activity
ROS1 = ROS1 (Homo sapiens, UniProt P08922); assay: HotSpot kinase assay; conditions: read-out: % Enzyme Activity
TRKA = TRKA (Homo sapiens, UniProt P04629); assay: HotSpot kinase assay; conditions: read-out: % Enzyme Activity
Chain of TRKA (P04629 33-796): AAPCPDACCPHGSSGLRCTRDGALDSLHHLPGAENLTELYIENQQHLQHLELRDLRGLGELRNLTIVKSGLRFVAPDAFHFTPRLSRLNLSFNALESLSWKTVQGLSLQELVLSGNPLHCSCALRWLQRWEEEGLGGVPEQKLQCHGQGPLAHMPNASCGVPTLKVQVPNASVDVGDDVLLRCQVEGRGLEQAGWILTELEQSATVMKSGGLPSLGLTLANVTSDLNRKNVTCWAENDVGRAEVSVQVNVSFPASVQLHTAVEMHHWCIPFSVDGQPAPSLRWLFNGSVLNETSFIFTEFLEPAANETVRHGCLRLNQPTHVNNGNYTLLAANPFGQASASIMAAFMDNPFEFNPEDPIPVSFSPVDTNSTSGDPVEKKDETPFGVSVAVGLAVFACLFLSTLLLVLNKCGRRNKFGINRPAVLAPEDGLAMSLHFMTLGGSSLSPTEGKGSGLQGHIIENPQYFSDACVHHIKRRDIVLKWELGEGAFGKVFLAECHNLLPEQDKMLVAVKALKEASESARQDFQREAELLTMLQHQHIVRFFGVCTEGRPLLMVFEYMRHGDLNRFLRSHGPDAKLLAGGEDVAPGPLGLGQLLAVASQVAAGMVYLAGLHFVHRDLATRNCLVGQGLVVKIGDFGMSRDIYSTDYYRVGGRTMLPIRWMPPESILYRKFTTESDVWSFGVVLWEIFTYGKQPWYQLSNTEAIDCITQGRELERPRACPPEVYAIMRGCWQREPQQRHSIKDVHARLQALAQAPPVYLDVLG

TRKB = TRKB (Homo sapiens, UniProt Q16620); assay: HotSpot kinase assay; conditions: read-out: % Enzyme Activity
Chain of TRKB (Q16620 32-822): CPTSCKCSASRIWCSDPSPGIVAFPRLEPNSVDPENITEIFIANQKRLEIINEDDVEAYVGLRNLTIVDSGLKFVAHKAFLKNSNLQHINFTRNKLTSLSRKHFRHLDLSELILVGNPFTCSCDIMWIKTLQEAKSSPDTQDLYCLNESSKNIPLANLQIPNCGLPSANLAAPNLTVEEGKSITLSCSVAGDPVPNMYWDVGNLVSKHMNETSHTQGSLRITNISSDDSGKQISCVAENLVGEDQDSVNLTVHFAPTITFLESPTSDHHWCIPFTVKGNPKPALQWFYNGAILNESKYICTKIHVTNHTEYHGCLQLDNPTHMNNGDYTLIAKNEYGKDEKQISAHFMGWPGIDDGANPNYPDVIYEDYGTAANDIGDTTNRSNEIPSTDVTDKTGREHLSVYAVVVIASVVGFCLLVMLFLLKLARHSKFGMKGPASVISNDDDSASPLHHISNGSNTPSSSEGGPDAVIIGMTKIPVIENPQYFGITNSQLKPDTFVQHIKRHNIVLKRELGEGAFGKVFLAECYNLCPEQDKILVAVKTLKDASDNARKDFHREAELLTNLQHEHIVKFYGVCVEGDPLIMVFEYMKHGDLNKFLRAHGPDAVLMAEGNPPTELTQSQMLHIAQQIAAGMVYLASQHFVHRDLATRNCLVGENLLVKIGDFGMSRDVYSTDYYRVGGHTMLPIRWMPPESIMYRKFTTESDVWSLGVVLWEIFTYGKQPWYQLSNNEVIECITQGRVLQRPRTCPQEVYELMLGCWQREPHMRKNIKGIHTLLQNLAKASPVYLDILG

TRKC = TRKC (Homo sapiens, UniProt Q16288); assay: HotSpot kinase assay; conditions: read-out: % Enzyme Activity
Chain of TRKC (Q16288 32-839): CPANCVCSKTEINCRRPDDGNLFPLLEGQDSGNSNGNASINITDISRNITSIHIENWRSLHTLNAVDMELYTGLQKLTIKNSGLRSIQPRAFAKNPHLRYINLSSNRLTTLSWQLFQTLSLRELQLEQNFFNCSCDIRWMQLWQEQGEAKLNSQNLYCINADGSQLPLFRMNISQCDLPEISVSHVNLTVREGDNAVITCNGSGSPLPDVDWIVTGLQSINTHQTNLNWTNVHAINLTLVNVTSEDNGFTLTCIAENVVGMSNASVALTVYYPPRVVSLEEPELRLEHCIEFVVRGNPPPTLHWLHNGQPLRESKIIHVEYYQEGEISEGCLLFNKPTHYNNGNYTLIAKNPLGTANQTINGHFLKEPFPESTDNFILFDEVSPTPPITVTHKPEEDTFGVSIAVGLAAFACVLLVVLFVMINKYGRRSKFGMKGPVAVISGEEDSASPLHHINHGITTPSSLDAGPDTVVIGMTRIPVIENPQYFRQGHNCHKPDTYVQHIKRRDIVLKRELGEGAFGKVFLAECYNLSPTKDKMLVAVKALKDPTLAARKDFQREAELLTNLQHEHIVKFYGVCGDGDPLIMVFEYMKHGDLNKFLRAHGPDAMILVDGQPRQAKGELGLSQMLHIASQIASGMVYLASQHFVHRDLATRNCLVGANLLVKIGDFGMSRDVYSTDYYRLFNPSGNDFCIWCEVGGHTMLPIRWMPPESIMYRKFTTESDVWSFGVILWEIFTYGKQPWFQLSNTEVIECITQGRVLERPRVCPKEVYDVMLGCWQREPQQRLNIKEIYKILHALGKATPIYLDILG

[7] = 14-day repeated dose toxicity study; conditions: ICR mice
[8] = system: MER phosphorylation in G361 cells; assay: Western blotting of MER phosphorylation; conditions: 48 h treatment
[9] = system: AXL phosphorylation in H1299 cells; assay: Western blotting of AXL phosphorylation; conditions: 1 h treatment
[10] = male, ICR, mouse, plasma, iv 2 mg/kg, po 10 mg/kg

## CCC[C@@H](C)Nc1ncc2c(C3CCN(C(=O)c4cc(C)nc(C)c4)CC3)cn([C@H]3CC[C@H](O)CC3)c2n1 [Compound 2, UNC5293]
MER
  IC50: 0.9 nM

## CN(C)Cc1cccc(-c2c(-c3cnn(C)c3)oc3ncnc(Oc4ccc(NC(=O)c5cccn(-c6ccc(F)cc6)c5=O)cc4)c23)c1 [Compound 33, N-{4-[(5-{3-[(Dimethylamino)methyl]phenyl}-6-(1-methyl-1H-pyrazol-4-yl)furo[2,3-d]pyrimidin-4-yl)oxy]phenyl}-1-(4-fluorophenyl)-2-oxo-1,2-dihydropyridine-3-carboxamide]
Ba/F3-MER cells
  IC50: 5 nM and 4.8 nM
[2]; [10]
  bioavailability: > 20%
  bioavailability at 24 h: 54.6%
[2]; male, ICR, mouse, plasma, iv 2 mg/kg, read-out: iv CL
  clearance: 12.6 mL/min/kg
[2]; male, ICR, mouse, plasma, iv 2 mg/kg, read-out: iv T1/2 (converted)
  half-life: 4.5 h
[2]; male, ICR, mouse, plasma, iv 2 mg/kg, read-out: iv Vss
  Vd: 5.2 L/kg
[2]; male, ICR, mouse, plasma, po 10 mg/kg
  Tmax at 24 h: 5.3 h
[2]; male, ICR, mouse, plasma, po 10 mg/kg, read-out: po T1/2 (converted)
  half-life at 24 h: 5.2 h
[2]; iv 2 mg/kg, dose-normalized
  iv DNAUC(0–inf): 1,573.0 ng × hr/mL
[2]; po 10 mg/kg, dose-normalized
  po DNAUC(0–inf): 858.8 ng·h/mL
  po DNCmax: 95.0 ng/mL
[3]
  Microsomal stability @ 30 min: 79%
MC38 murine colon tumor
  body weight during treatment: well-tolerated without significant body weight loss
[4]
  increase in intratumoral M1-like macrophages: 2 fold
  increase in percentage of Cd3^+ pan-T cells in spleen: 2 fold
  increase in percentage of Cd4^+ helper T cells in spleen: 2 fold
  increase in percentage of Cd8^+ cytotoxic T cells in spleen: 6 fold
[5]
  toxicity, 14-day repeated dose: no significant toxicity at any dose level
DDR1
  remaining activity at 1 µM: 9.39%
DDR2
  remaining activity at 1 µM: 4.45%
FLT3 [6]
  remaining activity at 1 µM: -0.03%
KIT
  remaining activity at 1 µM: 1.05%
IRR
  remaining activity at 1 µM: 1.79%
ROS1
  remaining activity at 1 µM: 2.88%
TRKA
  remaining activity at 1 µM: 3.35%
TRKB
  remaining activity at 1 µM: 6.07%
TRKC
  remaining activity at 1 µM: 2.26%
[7]
  CBC: No significant
  body weight: No effect on body
  kidney serum biomarker CRE: Mild effect on CRE; also recorded: mild decline in kidney serum biomarker CRE at 30 and 100 mpk
  organ weight: No significant
[8]
  MER phosphorylation induced by MAB8912: effectively blocked MER phosphorylation
[9]
  Gas6-mediated AXL phosphorylation: effectively blocked
